Experiments:
Wnt pathway = experiment: Cignal Finder dual-luciferase pathway reporter, Wnt; type: cell-based, human; parameters: key to Relative activity, Wnt reporter: firefly/renilla ratio, background (negative control) subtracted; settings: for Relative activity, Wnt reporter: luc/Renluc relative to negative control reporter, single drug at 4 folds vs EH/Ci/Mi combination;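 on digitalized pathway activity, Wnt: code −1 means repressed below 0.5-fold of 5637 cells or no-drug control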
Protocol: The pathway analysis was performed with Qiagen's Cignal Finder Pathway Reporter Array systems according to the manufacturer's instructions. The pathway-focused dual-luciferase reporter construct was a mixture of an inducible transcription factor responsive firefly luciferase reporter and constitutively expressing renilla construct. Transcriptional response element (TRE) sequence response elements to each specific transcriptional factor triggered by the different signaling pathways are positioned before the TATA box of firefly luciferase reporter gene. The extent of activity of the reporter reflects the level of activity of the particular signaling pathway. CMV controlled renilla expression vector is co-transfected into the cell as an internal control. Non-inducible reporter construct that lacks the transcriptional factor binding sequence and could not be induced by any transcription factors is used as a negative control. Cells transfected with CMV directed firefly luciferase reporter gene serve as a positive control. Briefly, cells seeded in 6-well plates were transfected with Cignal finder pathway arrays according to the manufacturer's instructions (Qiagen). Then cells were seeded onto 96-well plates. Ci (6000 ng/mL), Mi (800 ng/mL), or EH (1000 ng/mL) and Ci/Mi/EH combination (Ci, 1500 ng/mL, Mi, 800 ng/mL and EH, 1000 ng/m L) were then added to the cells 24 h post-transfection. After 6 h of incubation with the different drugs at 37° C., cells were lysed and a dual luciferase assay (for firefly and renilla luciferase) was performed using a PromegaGloMax 20/20 illuminometer. The firefly luciferase activities were normalized over the renilla luciferase activities after background activity determined by luciferase activities of negative controls was subtracted. A triple test of cell survival under these drug doses was also performed by MTT assay following 18 h incubation at 37° C. […]

[1] = system: CD34 positive vascular structures in tumor xenografts; experiment: CD34 immunohistochemistry of tumor xenografts; type: in vivo, BALB/C male nude mice; settings: relative to PBS controls; day 28
Protocol: Immunostaining was performed on 5 μm slices of formalin fixed paraffin-embedded tumor xenografts using antibodies from Gene Tech Company (Shanghai, China) against both Ki67 and CD34. Pictures were taken by LEICA DM 4000B microscope and the relative level of each protein was calculated using LEICA software. The relative staining per antibody (in percentage) in the […] tumors was calculated and plotted.
This example then compared the in vivo anticancer activity of EH/Ci/Mi regimen with its mono- and bi-drug counterparts on the 5637, UM-UC-3, or Biu87 cells derived tumor xenografts in nude mice. Since there is no established conversion rule for the drug dose in cell culture to in nude mice, this example used 75 μg per mouse for the mono-drug treatments and 25 μg per drug per mouse for both bi-drug and tri-drug combinations, based on the maximum tolerated drug dose recommended for these drugs. To minimize the inter-mouse bias's effect on tumor growth, three different BCa cell line-derived tumor xenografts were individually established subcutaneously on the back of the twelve mice (FIG. 5A). […] The tumor volumes were measured once every three days and were normalized by the volume on day 7. […]

H-bc = experiment: MTT cell survival / IC50, H-bc cells; type: cell-based, human; settings: for Cell survival 72 hours / ACS (%): H-bc cells; for Cell survival 72 hours: Table 4 (A); for ACS (%): Table 4 (B); for Cell survival (%) / Single drug 4X Cell Survival (%): H-bc; for Cell survival (%): Table S3, ng/ml: Pi 40, Pa 160, EH 250, Ci 1500, Mi 200, 1=Ci/Mi, 2=EH/Ci/Mi, 3=Pa/Ci/Mi, 4=Pi/Ci/Mi; for Single drug 4X Cell Survival (%): ng/ml: EH 1000, Ci 6000, Mi 800, Pi 160, Pa 640, Ge 20, EH/Ci/Mi regimen
Protocol: The clinical grade of the chemotherapeutics (NCI Dictionary of Cancer Terms) was provided by the First Affiliated Hospital of Harbin Medical University: Pirarubicin (Pi, Wanle, Shenzhen), Paclitaxel (Pa, Taiji, Sichuan), Adriamycin (Ad, Pfizer, Jiangsu), Epirubicin Hydrochloride (EH, Haizheng, Zhejiang), Hydroxycamptothecin (Hy, Lishizhen, Hubei), Cisplatin (Ci, Haosen, Jiangsu), Gemcitabine (Ge, Haosen, Jiangsu) and Mitomycin (Mi, Haizheng, Zhejiang). The drug induced cell death was determined by a thiazolyl […] (MTT, 490 nm reading) based cell proliferation assay in the cultured cells following treatment by various concentrations of drugs for 72 hours. The relative chemoresistance to each drug of all cell lines was calculated with the lowest IC50 as a reference. The overall chemoresistance of each cell line was described as “chemoresistance index”, the numerator of the total relative IC50 to all the drugs over the number of drugs to rank the overall resistance state of each cell line to the six chemotherapeutics collectively.
The relative IC50 (fold) of each drug of all nine cell lines was normalized to the lowest IC50 in the most sensitive cell line (FIG. 2G), to describe the single drug resistance of cell lines. The overall chemoresistance of each cell line, a “chemoresistance index” (the numerator of the total relative IC50 over the number of drugs) (FIG. 2G) were calculated to rank the overall resistance state of each cell line to this six chemotherapeutics.
Twenty six-drug combinations at the indicated doses were initially generated through a random number generator (using MATLAB MathWorks©, Natick, Mass., U.S.) (The upper half of Table 1). The cell survival (% over the not drug control) of treated cells was determined and then used for a calculation of the average cumulative cell survival (%, ACS: the sum of cell survival (%) per combination divided by the number of cell lines tested). ACS<30% was used to separate the effective from the not-effective combinations.

Row | Structure (SMILES) | digitalized pathway activity, Wnt (Wnt pathway; 5637 cells) | relative drug trigged pathway activity over the no-drug level, Wnt (Wnt pathway; 5637 cells) [fold] | Relative activity, Wnt reporter (Wnt pathway; 5637 cells) | relative drug trigged pathway activity over the no-drug level, Wnt (Wnt pathway; Biu87 cells) [fold] | Relative activity, Wnt reporter (Wnt pathway; Biu87 cells) | digitalized pathway activity, Wnt (Wnt pathway; H-bc cells) | relative drug trigged pathway activity over the no-drug level, Wnt (Wnt pathway; H-bc cells) [fold] | Relative activity, Wnt reporter (Wnt pathway; H-bc cells) | digitalized pathway activity, Wnt (Wnt pathway; SV-HUC-1 cells) | relative drug trigged pathway activity over the no-drug level, Wnt (Wnt pathway; SV-HUC-1 cells) [fold] | Relative activity, Wnt reporter (Wnt pathway; SV-HUC-1 cells) | Relative activity, Wnt reporter (Wnt pathway; UM-UC-3 cells) | relative drug trigged pathway activity over the no-drug level, Wnt (Wnt pathway; Um-Uc-3 cells) [fold] | numbers of CD34 positive vascular structures in tumor xenografts [1] | Cell survival 72 hours (H-bc) [%] | ACS (%) (H-bc) | Cell survival (%) (H-bc) | Single drug 4X Cell Survival (%) (H-bc) | digitalized pathway activity, Wnt (Wnt pathway; Biu87 cells) | digitalized pathway activity, Wnt (Wnt pathway; UM-UC-3 cells)
1 | N.N.[Cl][Pt][Cl] [Ci, (SP-4-2)-diamminedichloroplatinum(II)] | 0 (null (0) if neither of the above holds) | 1.14 | 1.00 | 0.41 | 0.69 | 0 (null (0) if neither of the above holds) | 0.78 | 3.14 | 0 (null (0) if neither of the above holds) | 1.25 | 1.55 | 1.73 | 0.48 | reduced | 1.61 | 1.61 | 41.98 | 1.61 |  | 
2 | COc1cccc2c1C(=O)c1c(O)c3c(c(O)c1C2=O)C[C@@](O)(C(=O)CO)C[C@@H]3[C@@H]1C[C@H](N)[C@@H](O)[C@H](C)O1 [EH, (8R,10S)-10-((2S,4S,5R,6S)-4-amino-5-hydroxy-6-methyltetrahydro-2H-pyran-2-yl)-6,8,11-trihydroxy-8-(2-hydroxyacetyl)-1-methoxy-7,8,9,10-tetrahydrotetracene-5,12-dione] | 0 (null (0) if neither of the above holds) | 1.19 | 1.04 | 0.95 | 1.57 | 0 (null (0) if neither of the above holds) | 1.03 | 1.10 | 0 (null (0) if neither of the above holds) | 1.05 | 1.30 | 4.12 | 1.15 |  | 2.60 | 2.60 | 61.03 | 2.6 | 0 (null (0) if neither of the above holds) | 0 (null (0) if neither of the above holds)
3 | COC12C(COC(N)=O)C3=C(C(=O)C(C)=C(N)C3=O)N1CC1NC12 (stereo not shown) [Mi, [6-Amino-8a-methoxy-5-methyl-4,7-dioxo-1,1a,2,4,7,8,8a,8b-octahydroazireno [2′,3′:3,4]pyrrolo[1,2-a]indol-8-yl]methyl carbamate] |  | 1.87 | 1.63 | 1.06 | 1.77 | 0 (null (0) if neither of the above holds) | 0.55 | 0.60 | 0 (null (0) if neither of the above holds) | 1.29 | 1.60 | 4.06 | 1.13 |  | 81.16 | 81.16 | 91.67 | 81.16 | 0 (null (0) if neither of the above holds) | 0 (null (0) if neither of the above holds)

Reference: patent US10238688B2, “Combination therapies for bladder cancer” (GENEDIA BIOTECH CO. LTD., priority 2015, dated 2019)
